# According to ChEMBL document CHEMBL1201862, “PubChem BioAssay data set” (2004):
#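 Test compounds were applied to cells in 96-well plates for 48 hours at 5 doses. At the GI50, growth is halved.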 The source made the active and inactive calls. Rule as the data show it: active = GI50 up to about 1.1 µM and inactive = higher.
# Columns and labels:
# Test in all cases: NCI tumour cell line growth inhibition, 48 h
# SK-MEL-2 = test system: SK-MEL-2
# NCI-H23 = test system: NCI-H23
# HT-29 = test system: HT-29
# SNB-19 = test system: SNB-19
# CAKI-1 = test system: CAKI-1
# LOX IMVI = test system: LOX IMVI
# CCRF-CEM = test system: CCRF-CEM
# SK-OV-3 = test system: SK-OV-3
# KM12 = test system: KM12
# SF-539 = test system: SF-539
# MDA-MB-231 = test system: MDA-MB-231
# SF-295 = test system: SF-295
# OVCAR-3 = test system: OVCAR-3
# 786-0 = test system: 786-0
# M14 = test system: M14
# Malme-3M = test system: Malme-3M
# SNB-75 = test system: SNB-75
# OVCAR-8 = test system: OVCAR-8
# NCI-H460 = test system: NCI-H460
# DLD-1 = test system: DLD-1
Compound,GI50 (SK-MEL-2),GI50 (NCI-H23),GI50 (HT-29),GI50 (SNB-19),GI50 (CAKI-1),GI50 (LOX IMVI),GI50 (CCRF-CEM),GI50 (SK-OV-3),GI50 (KM12),GI50 (SF-539),GI50 (MDA-MB-231),GI50 (SF-295),GI50 (OVCAR-3),GI50 (786-0),GI50 (M14),GI50 (Malme-3M),GI50 (SNB-75),GI50 (OVCAR-8),GI50 (NCI-H460),GI50 (DLD-1)
CN(Cc1cnc2nc(N)nc(N)c2n1)c1ccc(C(=O)NC2CCCCC2)cc1,35.5 µM (inactive),36.1 µM (inactive),16.2 µM (inactive),14.9 µM (inactive),63.7 µM (inactive),5.51 µM (inactive),36.7 µM (inactive),54.6 µM (inactive),26.9 µM (inactive),13.6 µM (inactive),33.6 µM (inactive),32.4 µM (inactive),56.2 µM (inactive),11.6 µM (inactive),10.6 µM (inactive),20.9 µM (inactive),25.2 µM (inactive),14.2 µM (inactive),20.1 µM (inactive),–
CC(=O)OC1(C)N=NC2(CCCCC2)O1 (centres undefined),> 100 µM (inactive),> 100 µM (inactive),> 100 µM (inactive),> 100 µM (inactive),> 100 µM (inactive),> 100 µM (inactive),> 100 µM (inactive),> 100 µM (inactive),> 100 µM (inactive),> 100 µM (inactive),> 100 µM (inactive),> 100 µM (inactive),> 100 µM (inactive),> 100 µM (inactive),> 100 µM (inactive),> 100 µM (inactive),> 100 µM (inactive),> 100 µM (inactive),> 100 µM (inactive),–
CC(C)(C)OC(=O)CC(NC(=O)OC(C)(C)C)C(=O)N[C@@H]1CCCC[C@H]1C(=O)OCc1ccccc1 (some centres undefined),32.3 µM (inactive),29.3 µM (inactive),17.2 µM (inactive),33.3 µM (inactive),38.4 µM (inactive),29 µM (inactive),20.8 µM (inactive),19.2 µM (inactive),30.1 µM (inactive),24.5 µM (inactive),32.5 µM (inactive),24.7 µM (inactive),28.9 µM (inactive),70.6 µM (inactive),36.1 µM (inactive),33.7 µM (inactive),23.1 µM (inactive),28.8 µM (inactive),29.6 µM (inactive),–
Cc1cccc2c1NC(c1c(C)[nH]c3ccccc13)C2 (centres undefined),> 100 µM (inactive),> 100 µM (inactive),> 100 µM (inactive),> 100 µM (inactive),–,80 µM (inactive),57.7 µM (inactive),> 100 µM (inactive),62.4 µM (inactive),> 100 µM (inactive),–,54.8 µM (inactive),86.7 µM (inactive),> 100 µM (inactive),78.7 µM (inactive),> 100 µM (inactive),> 100 µM (inactive),> 100 µM (inactive),> 100 µM (inactive),> 100 µM (inactive)
CCCCc1c2c(nc3c1CCc1cc4cc5c(nc4nc1-3)-c1nc3c(c(CCCC)c1CC5)CCCC3)CCCC2,–,49.5 µM (inactive),7.28 µM (inactive),34.4 µM (inactive),–,41.9 µM (inactive),31.7 µM (inactive),36.5 µM (inactive),48.1 µM (inactive),16.4 µM (inactive),–,15.7 µM (inactive),> 10 µM (inactive),23.6 µM (inactive),53.1 µM (inactive),38.6 µM (inactive),49.9 µM (inactive),39.6 µM (inactive),47.1 µM (inactive),59.8 µM (inactive)
Cc1[nH]c2ccccc2c1/C=N/c1ccc(Oc2ccccc2)cc1,18.4 µM (inactive),16 µM (inactive),17.3 µM (inactive),18 µM (inactive),15.9 µM (inactive),15.5 µM (inactive),7.05 µM (inactive),17.5 µM (inactive),16.2 µM (inactive),18.1 µM (inactive),15.6 µM (inactive),14 µM (inactive),14.2 µM (inactive),16.3 µM (inactive),16.6 µM (inactive),19 µM (inactive),13 µM (inactive),18.3 µM (inactive),20.4 µM (inactive),–
Cc1ccnc2nc(-c3cccc4ccccc34)cc(O)c12,0.000458 µM (active),0.0783 µM (active),0.00296 µM (active),0.0147 µM (active),0.0121 µM (active),0.00713 µM (active),0.00527 µM (active),0.00471 µM (active),0.0183 µM (active),0.0112 µM (active),0.149 µM (active),0.0132 µM (active),0.00258 µM (active),0.011 µM (active),0.00938 µM (active),0.000708 µM (active),0.00255 µM (active),0.0203 µM (active),0.0121 µM (active),–
c1ccc(-c2nn(-c3ccccc3)[n+](-c3ccccc3)n2)cc1 [TETRAZOLIUM RED],36.8 µM (inactive),7.29 µM (inactive),18.6 µM (inactive),> 35.6 µM (inactive),> 100 µM (inactive),11.9 µM (inactive),0.718 µM (active),> 100 µM (inactive),11.3 µM (inactive),33 µM (inactive),20 µM (inactive),> 56.1 µM (inactive),0.191 µM (active),14.3 µM (inactive),10.7 µM (inactive),0.394 µM (active),> 67.6 µM (inactive),49.9 µM (inactive),21.1 µM (inactive),–
